# Results published in patent US5063245A, “Corticotropin-releasing factor antagonism compounds” (Nova Pharmaceutical Corporation, priority 1990, dated 1991).
# Entries after “also recorded” stand apart in the source; their conditions may differ. Counter-ions that a name gives are not always drawn. Like-named read-outs stand apart in the source and are kept apart here. Ends that are not written are not given here.
# Key:
# [1] = intracerebroventricular (icv); cited from earlier work
# CRF receptor = target: T1, CRF receptor (Rattus norvegicus, UniProt P35353); assay: In vitro receptor binding: inhibition of specific binding of [125I]tyrosine-oCRF to rat cerebral cortex membranes; conditions: [125I]Tyr-oCRF 50-100 pM, 2 hours at room temperature
# T1 construct: the cerebral cortex was removed and the tissue homogenized; from tissue; host or cells: cerebral cortex membranes of male Sprague-Dawley rats
# T1 sequence (P35353 24-415): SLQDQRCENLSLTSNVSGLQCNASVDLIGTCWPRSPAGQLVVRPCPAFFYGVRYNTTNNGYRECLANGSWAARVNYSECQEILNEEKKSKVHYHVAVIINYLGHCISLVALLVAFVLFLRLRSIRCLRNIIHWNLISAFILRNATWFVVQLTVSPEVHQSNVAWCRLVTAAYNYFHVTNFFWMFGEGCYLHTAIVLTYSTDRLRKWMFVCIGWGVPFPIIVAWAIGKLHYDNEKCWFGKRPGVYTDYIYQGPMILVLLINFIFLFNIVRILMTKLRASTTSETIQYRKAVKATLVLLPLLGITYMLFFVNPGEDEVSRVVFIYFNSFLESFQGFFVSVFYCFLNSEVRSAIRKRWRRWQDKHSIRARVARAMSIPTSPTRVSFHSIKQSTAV
# Method: The potency of the compounds of the invention as inhibitors of the specific binding of radiolabeled CRF to rat cerebral cortex membranes was examined using a standard in vitro radioligand binding technique. […] The homogenate was centrifuged at 48,000×g for 10 minutes at 4° C. The supernatant was removed, the tissue pellet suspended in the original volume of fresh homogenization buffer using a Polytron and centrifuged as before. […] Incubation buffer consists of 50 mM Hepes (pH 7.0 at 22° C.) containing 10 mM MgCl2, 2 mM EGTA, 0.1 mM bacitracin, 100 KIU (kallikrein inhibitor units)/mL aprotinin and 0.1% BSA (bovine serum albumin). […] Nonspecific binding was determined in the presence of 1 μM oCRF. The binding reaction was allowed to proceed for 2 hours at room temperature. Bound radioligand was separated from the incubation medium by centrifugation in a Beckman microfuge for 5 minutes at 12,000×g. The supernatant was aspirated and the resulting pellet was washed with 1 mL of cold phosphate buffered saline (pH 7.2) containing 0.01% of Triton X-100.
# Tyr-oCRF to rat cortical membranes was determined on at least three separate occasions using 8-10 concentrations of each compound and utilizing triplicate incubations. The IC50 and apparent Hill coefficient for each compound were calculated using a computer-assisted log-logit analysis.
# [2] = target: CRF-stimulated adenylate cyclase; assay: Inhibition of CRF-stimulated adenylate cyclase activity (rat frontal cortex); type: biochemical; conditions: 1 μM oCRF, 37° C., 10 minutes
# Source text: CRF antagonist activity is established by the ability of the compounds to antagonize CRF-stimulated adenylate cyclase activity, it having been established that CRF receptors are coupled to a guanine nucleotide regulatory protein that activates adenylate cyclase [G. Aguilera et al., Neuroendocrinology, 43, 79 (1986); G. Battaglia et al., Synapse, 1, 572 (1987)].
# (§1) Male Sprague-Dawley rats (175-250 g) were sacrificed by decapitation, the frontal cortex was dissected and homogenized in 30 volumes (w/v) of ice-cold buffer (50 mM Tris HCl, 10 mM MgCl2, 2 mM EGTA; pH 7.2 at 22° C.). The homogenate was centrifuged at 40,000×g for 3 minutes (4° C.), the supernatant discarded and the pellet resuspended in original volume of fresh homogenization buffer. Following centrifugation at 40,000×g for 30 minutes, the resulting pellet was suspended to a tissue concentration of 20 mg original wet weight of tissue per mL (approximately 40-60 μg protein/mL). For determination of basal adenylate cyclase activity, assays are carried out at 37° C. for 10 minutes in 250 μL of buffer containing 100 mM Tris HCl, 10 mM MgCl2, 0.4 mM EGTA, 0.1% BSA, 1 mM isobutylmethylxanthine (IBMX), 3 units/tube phosphocreatine kinase, 5 mM creatine phosphate, 100 μM guanosine. Maximal stimulation of adenylate cyclase activity was accomplished by the addition of 10^-6 M oCRF. Stimulated enzyme activity generally represented a 75-95% increase over basal levels. Reactions were initiated by the addition of tissue and terminated by the addition of 150 μL of 50 mM Tris HCl, 45 mM ATP, 2% sodium dodecyl sulfate (SDS), and [^3 H] cAMP (approximately 40,000 dpm). The [^3 H]cAMP was added to each assay tube to monitor recovery of cAMP during subsequent chromatography steps. Separation of [^32 P]cAMP from [^32 P]ATP was accomplished by sequential elution over Dowex and alumina columns. The eluate (4 mL) was collected in 20 mL scintillation vials to which 8 mL of Beckman EP fluor was added. Vials were shaken for 30 minutes prior to measuring ^3 H and ^32 P by scintillation counting. All data were fed directly from the liquid scintillation counter via RS232 port to a VAX 8300 computer. Individual data points were expressed as pmoles of cAMP formed/10 minutes/mg protein. Protein content of tissue samples was measured using the BioRad method with bovine serum albumin serving as the standard.
# Determination of antagonist activity was accomplished by addition of at least six concentrations of the compound (10^-8 -10^-4 M), evaluated in triplicate, in the presence of a maximally stimulating concentration of oCRF (1 μM). IC50 values were derived from a log-logit transformation of the data on a Vax 8300.
# adenylate cyclase = assay: Stimulation of adenylate cyclase activity by oCRF (rat frontal cortex); type: biochemical; conditions: 10^-6 M oCRF, 37° C., 10 minutes
# Method: as §1, with “Reactions were initiated by the addition of tissue and terminated by the addition of 150 μL of 50 mM Tris HCl, 45 mM ATP, 2% sodium dodecyl sulfate (SDS), and [^3 H] cAMP (approximately 40,000 dpm). The [^3 H]cAMP was added to each assay tube to monitor recovery of cAMP during subsequent chromatography steps. Separation of [^32 P]cAMP from [^32 P]ATP was accomplished by sequential elution over Dowex and alumina columns. The eluate (4 mL) was collected in 20 mL scintillation vials to which 8 mL of Beckman EP fluor was added. Vials were shaken for 30 minutes prior to measuring ^3 H and ^32 P by scintillation counting. All data were fed directly from the liquid scintillation counter via RS232 port to a VAX 8300 computer.” left out
# [3] = Table I, Formula I, read-out: Inhibition of CRF Binding, Rat Cerebral Cortex Membrane, IC50
# [4] = Table II, Formula II (disulfides), read-out: Inhibition of CRF Binding, Rat Cerebral Cortex Membrane, IC50
# [5] = Table II, Formula II (disulfides)
# [6] = Inhibition of CRF Binding, Rat Cerebral Cortex Membrane, IC50, Table I, Formula I
Compound,IC50 (CRF receptor; [3]),"IC50 ([2]; Table I, Formula I)",other results
"CRF: corticotropin releasing factor (SEEPPISLDLTFHLLREVLEMARAEQLAQQAHSNRKLMEII; ends and bridges not checked; UniProt P06850 154-194, looked up)",,,effect of icv injection of CRF (in words) [1]: elicits behavioral activation; also recorded: produces a long-lasting activation of the electroencephalogram; also recorded: stimulates the sympathoadrenomedullary pathway; also recorded: increases heart rate and blood pressure; also recorded: increases oxygen consumption; also recorded: alters gastrointestinal activity; also recorded: suppresses food consumption; also recorded: compromises immune function
"CCn1c(C)c(SC#N)c(=O)n1-c1ccccc1 [Formula I: Ph, C2 H5, CH3, SCN, 2-ethyl-3-methyl-5-oxo-1-phenyl-3-pyrazolin-4-yl thiocyanate]",12.2 µM,6.5 µM,
"Cc1c(SSc2c(C)n(C)n(-c3ccccc3)c2=O)c(=O)n(-c2ccccc2)n1C [Formula II: Ph, CH3, CH3, HCl, 2,3-Dimethyl-5-Oxo-1-Phenyl-3-Pyrazolin-4-yl Disulfide]",,,"IC50 (CRF receptor; [4]): 6.4 µM; IC50 [2, 5]: 2.5 µM"
"CC(=O)Sc1c(C)n(C)n(-c2ccccc2)c1=O [Formula I: Ph, CH3, CH3, SAc, 2,3-dimethyl-5-oxo-1-phenyl-3-pyrazolin-4-yl thioacetate]",13.7 µM,2.9 µM,
"CCn1c(C)c(SC#N)c(=O)n1-c1ccc(S(C)(=O)=O)cc1 [Formula I: 4-CH3 SO2 Ph, C2 H5, CH3, SCN, 2-ethyl-3-methyl-5-oxo-1-(4-methylsulfonylphenyl)-3-pyrazolin-4-yl thiocyanate]",17 µM,11.4 µM,
"CCn1c(C)c(SC#N)c(=O)n1CC [Formula I: C2 H5, C2 H5, CH3, SCN, 1,2-diethyl-3-methyl-5-oxo-3-pyrazolin-4-yl thiocyanate]",,29.4 µM,IC50 (CRF receptor; [6]): 111 µM
"oCRF: ovine CRF, a 41 residue straight chain peptide",,,"Stimulated enzyme activity, increase over basal levels (adenylate cyclase): 75-95%"
"Cc1c(SC(Cl)(Cl)Cl)c(=O)n(-c2ccccc2)n1C [Formula I: Ph, CH3, CH3, SCCl3, 2,3-Dimethyl-5-Oxo-1-Phenyl-3-4-trichloromethylthio-Pyrazoline]",,9.6 µM,IC50 (CRF receptor; [6]): 20.4 µM
"Cc1c(SSc2c(C)n(C)n(-c3ccccc3)c2=O)c(=O)n(-c2ccccc2)n1C [Formula II: Ph, CH3, CH3, 2,3-Dimethyl-5-Oxo-1-Phenyl-3-Pyrazolin-4-yl Disulfide]",,,"IC50 (CRF receptor; [4]): 2.2 µM; IC50 [2, 5]: 1.1 µM"
"CCc1c(SC#N)c(=O)n(-c2ccccc2)n1C [Formula I: Ph, CH3, CH2 CH3, SCN, 3-ethyl-2-methyl-5-oxo-1-phenyl-3-pyrazolin-4-yl thiocyanate]",19.1 µM,31.7 µM,
"CC(=O)Nc1cccc(-c2c(SC#N)c(=O)n(-c3ccccc3)n2C)c1 [Formula I: Ph, CH3,3-AcNHPh, SCN, 2-methyl-5-oxo-1-phenyl-3-(3-acetamidophenyl)-3-pyrazolin-4-yl thiocyanate]",6.5 µM,3 µM,
"Cc1c(SC#N)c(=O)n(-c2ccccc2)n1-c1ccccc1 [Formula I: Ph, Ph, CH3, SCN, 3-methyl-5-oxo-1,2-phenyl-3-pyrazolin-4-yl thiocyanate]",16.1 µM,6.1 µM,
"Cc1c(SC#N)c(=O)n(C)n1Cc1ccccc1 [2-benzyl-1,3-dimethyl-5-oxo-3-pyrazolin-4-yl thiocyanate, hemifumarate]",,40.1 µM,IC50 (CRF receptor; [6]): 33.6 µM
